Assays:
MIC2 = test: SPR binding of PROTACs to immobilized antibody MIC2; conditions: MIC2, 1:1 kinetic binding model
Protocol: The binding affinities of hit antibodies MIC1 and MIC2 to a diverse set of VH032-based PROTACs (FIGS. 8A-8B) was determined by surface plasmon resonance (SPR) in a Biacore T200 instrument. The running buffer consist of PBS, 0.05% Tween-20, 2% DMSO and temperature and flow rate were set to 30° C. and 30 μL/min, respectively. The assay setup is depicted exemplarily in FIG. 7A. CM5 sensor chips were coated with antibody (=ligand; 2500 RU) using standard EDC/NHS chemistry. PROTACs (=analytes) were serially diluted (1 μM-1.9 nM) in running buffer, injected to the instrument in consecutive runs and were captured by the antibody resulting in an increase of the corresponding SPR response. After the association step (300 s), running buffer was injected for 600 s and the PROTAC dissociated from the antibody leading to signal decrease. After each run, residual bound PROTAC was removed from the immobilized antibody by injection of 10 mM glycine/HCl, pH 1.5 for 2×30 s regenerating the antibody for the next association and dissociation cycle. To compensate for matrix effects, the measured SPR response signal was subtracted by the analyte response to an inactivated (EDC/NHS, ethanol amine) reference surface omitting the ligand. Furthermore, a DMSO solvent correction was performed and analyte response was subtracted by the running buffer signal. The corrected response was fitted by a 1:1 kinetic binding model yielding the on- (kon) and off-rate (koff) of the PROTAC, as well as its dissociation constant (KD).

[1] = PK study of CD33-based VHH fusions and PAX in C57BL/6N mice; assay type: in vivo, mouse; conditions: analyte tAntibody, 30 mg/kg i.v., mean
Protocol: Additionally, the PAX CD33xMIC5+GNE987 and CD33xMIC7+GNE987 were generated with a theoretical loading of 100% and investigated in PK studies conducted in C57BL/6N inbred mice (N=2 males and females for each group) provided by Charles River Laboratories Italia, Calco, Italy. The 7-8-week-old mice received 30 mg/kg (corresponding to 0.38 mg/kg PROTAC) of CD33xMIC5+GNE987 and CD33xMIC7+GNE987, CD33 antibody alone, CD33xMIC5 or CD33xMIC7 as single dose, that was intravenously injected into the tail vein. Samples have been serially collected from all animals using a microsampling technique ([…] for each blood withdrawal). After administration, two blood samples were taken on the first day and 7 during the three weeks later. Each sample was collected in pre-chilled (0-4° C.) Minivette POCT EDTA tube, transferred in Microvette CB300 EDTA and centrifuged at 2500×g for 10 min at 4° C. The obtained plasma was transferred into a new vial and immediately stored at −80° C. until further analyses. The PK study, animal handling and experimentation, was conducted in accordance with the Italian D.Lvo. 2014/26 and Directive 2010/63/EU. The study was performed at the Instituto di Ricerche Biomediche Antoine Marxer, Colleretto Giacosa, Italy. The institute is fully authorized by the Italian Ministry of Health.
The total antibody concentration was determined by ligand binding assay (LBA) based on the Meso Scale Diagnostics technology (MSD, LLC., Rockville, MD). All incubation steps were performed at 22° C. with gentle agitation. All washing steps (200 μL/well) were performed with PBS-T, containing PBS pH 7.4 and 0.01% Tween 20, using the plate washer ELx405 (BioTek instruments Inc., Winooski, VT). First, 2.5 μg/mL biotin-SP-conjugated AffiniPure goat anti-human IgG, Fcγ fragment specific (Jackson ImmunoResearch Europe Ltd., JIR, Cambridgeshire, United Kingdom, #109-065-098) was coated on MSD GOLD 96-well Streptavidin QUICKPLEX Plates (MSD, #L55SA) for 2 h. Afterwards, plates were washed three times. Plasma samples, standards and quality controls were serially diluted in dilution buffer, consisting of PBS pH 7.4, 0.05% Tween 20 and 3.0% (w/v) BSA, and incubated on the plates for 1 h. The plates were washed again and incubated for 1 h with 0.6 μg/ml mouse anti-human IgG, F(ab′)2 fragment specific (JIR, #209-005-097), previously labeled with MSD GOLG SULFO-TAG (MSD, #R31AA-1) according to the manufacturing procedure. After a final washing step, 150 μL of 2×MSD Read Buffer T with surfactant (MSD, #R92TC) was added to each well and plates were read on a MESO Quickplex SQ120 plate reader (MSD). The Software Watson LIMS (Version 7.5, ThermoFisher Scientific Inc.) was used to fit the standard curve with a 5PL (Marquart) equations, weighting factor 1/Y2, and to calculate the total mAb concentration of the plasma samples. The lower limit of quantification (LLOQ) was 50 ng/ml. The concentration of MSC2734242 was determined by liquid chromatography tandem mass spectrometry (LC-MS/MS) using a SCIEX 5500 triple quadrupole with Turbo Ion Spray source (ITS) in positive modality (SCIEX, Redwood City, CA, USA). Chromatographic separation was achieved using a Waters ACQUITY UPLC BEH (C18, 2.1×50 mm, 1.7 μm) column, mounted in a Waters ACQUITY I-class UPLC system (Milford, MA, USA), configured with a 100 μL extension loop. […]

CD33xMIC10 = test: SPR affinity of VHH clone (antibody fusion) to PROTACs; conditions: CD33xMIC10 immobilized, 25° C., read-out: KD [M] for antibody binding to PROTAC
Protocol: (§1) The kinetic and affinity parameters of protein-PROTAC interactions were evaluated by SPR. The anti-PROTAC VHH clones MIC5-MIC14 were immobilized as CD33 or CLL1 antibody fusion (the manufacturing of fusion proteins and the used linker is described in chapter 7.9) onto a CM5 (Series S) sensor chip via the standard amine coupling procedure, at 25° C. Prior to immobilization, the carboxymethylated surface of the chip was activated with 400 mM 1-ethyl-3-(3-dimethylaminopropyl)-carbodiimide and 100 mM N-hydroxysuccinimide for 7 min. Hit anti-PROTAC VHH as CD33 and CLL1 antibody fusions were diluted to 10 μg/ml in 10 mM Acetate at pH 4.5 and immobilized on the activated surface chip for 7 min, in order to reach 3,000 to 6,000 response units (RU). The remaining activated carboxymethylated groups were blocked with a 10 min injection of 1 M ethanolamine pH 8. HBS-N, which consists of 10 mM HEPES pH 7.4 and 150 mM NaCl, was used as the background buffer during immobilization. PROTACs were prediluted in DMSO, diluted 1:50 in running buffer (12 mM phosphate pH 7.4, 137 mM NaCl, 2.7 mM KCl, 0.05% Tween20, 2% DMSO) and injected at ten different concentrations using two-fold dilution series, from 1 μM to 0.002 μM. A DMSO solvent correction (1%-3%) was performed to account for variations in bulk signal and to achieve high-quality data. Interaction analysis cycles consisted of a 300 sec sample injection (30 μL/min; association phase) followed by 900 sec of buffer flow (dissociation phase).
(§2) All sensorgrams were processed by first subtracting the binding response recorded from the control surface (reference flow-channel), followed by subtracting of the buffer blank injection from the active flow-channel (target protein immobilized). All datasets were fit to a simple 1:1 Langmuir interaction model to determine the kinetic rate constants. Experiments were performed on a Biacore 8k+ (Cytiva, Uppsala, Sweden) at 25° C. and the interactions were evaluated using the provided Biacore Insight Evaluation software.

CD33xMIC11 = test: as above; conditions: CD33xMIC11 immobilized, 25° C., read-out: KD [M] for antibody binding to PROTAC
Protocol: as §1, §2

CD33xMIC13 = test: as above; conditions: CD33xMIC13 immobilized, 25° C., read-out: KD [M] for antibody binding to PROTAC
Protocol: as §1, §2

CD33xMIC14 = test: as above; conditions: CD33xMIC14 immobilized, 25° C., read-out: KD [M] for antibody binding to PROTAC
Protocol: as §1, §2

CD33xMIC5 = test: as above; conditions: CD33xMIC5 immobilized, 25° C., read-out: KD [M] for antibody binding to PROTAC
Protocol: as §1, §2

CD33xMIC6 = test: as above; conditions: CD33xMIC6 immobilized, 25° C., read-out: KD [M] for antibody binding to PROTAC
Protocol: as §1, §2

CD33xMIC7 = test: as above; conditions: CD33xMIC7 immobilized, 25° C., read-out: KD [M] for antibody binding to PROTAC
Protocol: as §1, §2

CD33xMIC12 = test: as above; conditions: CD33xMIC12 immobilized, 25° C., read-out: KD [M] for antibody binding to PROTAC
Protocol: as §1, §2

CD33xMIC8 = test: as above; conditions: CD33xMIC8 immobilized, 25° C., read-out: KD [M] for antibody binding to PROTAC
Protocol: as §1, §2

CD33xMIC9 = test: as above; conditions: CD33xMIC9 immobilized, 25° C., read-out: KD [M] for antibody binding to PROTAC
Protocol: as §1, §2

## CC(=O)N1c2ccc(-c3ccc(C(=O)NCCOCCOCCOCC(=O)N[C@H](C(=O)N4C[C@H](O)C[C@H]4C(=O)NCc4ccc(-c5scnc5C)cc4)C(C)(C)C)cc3)cc2[C@H](Nc2ccc(Cl)cc2)C[C@@H]1C [MZP54]
MIC2
  Kd: 0.42 nM
  koff: NM/8.40E−05 1/s
  kon: NM/2.00E+05 1/Ms

## CC(=O)N1c2ccc(-c3ccc(C(=O)NCCOCCOCCOCCOCC(=O)N[C@H](C(=O)N4C[C@H](O)C[C@H]4C(=O)NCc4ccc(-c5scnc5C)cc4)C(C)(C)C)cc3)cc2[C@H](Nc2ccc(Cl)cc2)C[C@@H]1C [MZP55]
MIC2
  Kd: 0.63 nM
  koff: NM/7.40E−05 1/s
  kon: NM/1.20E+05 1/Ms

## CD33 Ab: parental CD33-binding antibody (gemtuzumab CDRs, IgG4) without VHH
[1]
  AUC0-inf: 219000 µg·h/mL
  Cl: 3.36 mL/day/kg
  Cmax: 810 µg/mL
  Vss: 0.0742 L/kg
  t½: 237.0 h

## CCCOc1cccc(Oc2cc3c(cc2NS(=O)(=O)c2cccc(C(=O)NCCOCCOCCOCC(=O)N[C@H](C(=O)N4C[C@H](O)C[C@H]4C(=O)NCc4ccc(-c5scnc5C)cc4)C(C)(C)C)c2)n(C)c(=O)n3C)c1 [dTRIM24]
MIC2
  Kd: 0.42 nM
  koff: NM/1.64E−04 1/s
  kon: NM/3.92E+05 1/Ms

## Cc1ncsc1-c1ccc(CNC(=O)[C@@H]2C[C@@H](O)CN2C(=O)[C@@H](NC(=O)C2(F)CC2)C(C)(C)C)c(OCCOc2ccc(CN3CCN(c4cc(-c5ccccc5O)nnc4N)CC3)cc2)c1 [ACBI1]
MIC2
  Kd: > 1000 nM
CD33xMIC10
  Kd: 8.5e-06 M
CD33xMIC11
  Kd: 0.00011 M
CD33xMIC13
  Kd: 9.3e-05 M
CD33xMIC14
  Kd: 9.3e-07 M
CD33xMIC5
  Kd: 2.5e-06 M
CD33xMIC6
  Kd: 6.5e-06 M

## Cc1nc(Nc2ncc(C(=O)Nc3c(C)cccc3Cl)s2)cc(N2CCN(C(=O)CCCCCCC(=O)N[C@H](C(=O)N3C[C@H](O)C[C@H]3C(=O)NCc3ccc(-c4scnc4C)cc3)C(C)(C)C)CC2)n1 [SIAIS178]
MIC2
  Kd: 0.41 nM
  koff: NM/4.25E−05 1/s
  kon: NM/1.05E+05 1/Ms
CD33xMIC7
  Kd: 8.3e-09 M

## CC(=O)N[C@H](C(=O)N1C[C@H](O)C[C@H]1C(=O)NCc1ccc(-c2scnc2C)cc1)C(C)(C)SCCCCCCNC(=O)C[C@@H]1N=C(c2ccc(Cl)cc2)c2c(sc(C)c2C)-n2c(C)nnc21 [AT1]
MIC2
  Kd: 6 nM
  koff: NM/1.90E−03 1/s
  kon: NM/3.10E+05 1/Ms
CD33xMIC10
  Kd: 2.4e-09 M
CD33xMIC11
  Kd: 1.9e-10 M
CD33xMIC12
  Kd: 1.7e-09 M
CD33xMIC13
  Kd: 1.7e-09 M
CD33xMIC14
  Kd: 2.9e-09 M
CD33xMIC5
  Kd: 2.4e-09 M
CD33xMIC6
  Kd: 7.3e-09 M
CD33xMIC7
  Kd: 2.1e-09 M
CD33xMIC8
  Kd: 5.2e-09 M
CD33xMIC9
  Kd: 1.4e-09 M

## COc1cc(-c2cn(C)c(=O)c3cnccc23)cc(OC)c1CN1CCN(CCCCCOc2cc(-c3scnc3C)ccc2CNC(=O)[C@@H]2C[C@@H](O)CN2C(=O)[C@@H](NC(=O)C2(F)CC2)C(C)(C)C)CC1 [VZ185]
MIC2
  Kd: > 1000 nM
